Measurements: US8513205B2, “Potent chimeric NRTI-NNRTI bifunctional inhibitors of HIV-1 reverse transcriptase” (Yale University, priority 2008, dated 2013)
pIC50: −log10 of the molar value. Read-outs that look alike come from different tables or passages of the source.

Assays:
[1] = target: T1, HIV-1 RT (Human immunodeficiency virus type 1 group M subtype B, UniProt P03366); experiment: Steady-state competition assay, inhibition of single nucleotide incorporation by HIV-1 RT; type: biochemical
T1 construct: heterodimeric p66/p51 wild-type HIV-1 RT; His tag (histidine tag) (C); made in house
Method: dTTP and dGTP were purchased from GE Biosciences. Oligonucleotide primers and template were synthesized and purified using 20% denaturing gel-electrophoresis. […] Labeling and annealing of primer/templates were performed as described previously. Murakami, et al., J. Biol. Chem. 2003, 278, 36403-36409. Expression and Purification of HIV-1 RT.
C-terminal histidine tagged heterodimeric p66/p51 wild-type HIV-1 RT was expressed and purified as described previously (Kerr and Anerson, Biochemistry, 1997, 36, 14064-14070) using a clone generously provided by Stephen Hughes, Paul Boyer, and Andrea Ferris (Fredrick Cancer Research and Development Center, Fredrick, Md.).
DMSO concentrations were kept constant at less than 2%. DMSO alone was added as a no inhibitor control for each set of experiments. Reactions were initiated with the addition of 5 μM dNTP and 10 mM MgCl2 and were quenched after 15 minutes at 37° C. with 0.3 M EDTA. All concentrations represent final concentrations after mixing. Reaction products were subjected to 20% denaturing polyacrylamide gel-electrophoresis and quantitated on a Bio-Rad Molecular Imager FX. Product formation was plotted as a function of inhibitor concentration and fitted to a hyperbola to generate IC50 curves. IC50 values are defined as the concentration of inhibitor that inhibits steady-state single nucleotide incorporation by 50%.

[2] = target: T1, HIV-1 RT; experiment: Incorporation assay under single turnover conditions (gel, FIG. 7); type: biochemical; settings: 30 min, with Mg++; for incorporation into primer opposite template A: D23/D36mer, primer for T incorporation, no dTTP; for incorporation into primer opposite template C: D24/D36mer, primer for G incorporation, no dGTP
Method: Controls for both primer/templates include 0 time points (lanes 1 and 4) and incubation for 30 min. with no Mg^++ (lanes 2 and 5).
Incorporation experiments were performed under single turnover conditions; 50 μM d4U-TP-4PEG-TMC and 10 mM MgCl2 were mixed with 250 nM RT (active sites) and 50 nM 5′-labeled primer/template to initiate the reaction. Negative controls were performed under identical conditions without MgCl2. The reaction was allowed to proceed for 30 minutes at 37° C., after which the reaction was quenched with 0.3 M EDTA. Reaction products were subjected to 20% denaturing polyacrylamide gel-electrophoresis and analyzed on a Bio-Rad Molecular Imager FX.

[3] = inhibition of dGTP incorporation opposite template C, D24/D36mer primer-template, read-out: IC50 incorrect base pair
[4] = inhibition of dTTP incorporation opposite template A, D23/D36mer primer-template, read-out: IC50 correct base pair

Compound | fold improvement in potency relative to TMC-4PEG-OH ([1]; correct base pair, D23/D36mer) [fold] | pIC50 [1, 3] | pIC50 [1, 4] | fold improvement relative to d4T-TP ([1]; correct base pair, D23/D36mer) [fold] | fold improvement relative to the TMC-derivative ([1]; correct base pair, D23/D36mer) | incorporation into primer opposite template A ([2]; listed as d4U-TP-4PEG-TMC) | incorporation into primer opposite template A ([2]; listed as d4UTP-4PEG-TMC) | incorporation into primer opposite template C ([2]; listed as d4U-TP-4PEG-TMC) | incorporation into primer opposite template C ([2]; listed as d4UTP-4PEG-TMC) | fold lower potency relative to parent TMC-derivative ([1]; correct base pair, D23/D36mer) [fold]
Cc1cc(C#CCOCCOCCOCCOCCOCC#Cc2cn(C3C=CC(CO)O3)c(=O)[nH]c2=O)cc(C)c1Oc1ccnc(Nc2ccc(C#N)cc2)n1 (centres unmarked) [1b, d4U-propynyl-4-PEG-propynyl-TMC-120] | 3 | 7.46 | 7.80 | – | – | – | – | – | – | –
Cc1cc(C#CCOCCOCCOCCOCCOCC#Cc2cn(C3C=CC(COP(=O)(O)OP(=O)(O)OP(=O)(O)O)O3)c(=O)[nH]c2=O)cc(C)c1Oc1ccnc(Nc2ccc(C#N)cc2)n1 (centres unmarked) [1c, d4U-propynyl-4-PEG-propynyl-TMC-120 Triphosphate] | – | 7.42 | 8.52 | > 500 | 4-5 fold | formation of an elongated primer chain terminated with the bifunctional monophosphate | incorporation of the bifunctional-TP | not the D24/36mer primer-template | no product | –
Cc1cc(C#CCOCCOCCOCCOCCO)cc(C)c1Oc1ccnc(Nc2ccc(C#N)cc2)n1 [TMC-4PEG-OH, E, 4-(4-{4-[3-(2-{2-[2-(2-Hydroxy-ethoxy)-ethoxy]-ethoxy}-ethoxy)-prop-1-ynyl]-2,6-dimethyl-phenoxy}-pyrimidin-2-ylamino)-benzonitrile] | – | 7.54 | 7.31 | – | – | – | – | – | – | 4
